Laboratory results published in paper PMC5428354, “Screening of a natural compound library identifies emodin, a natural compound from Rheum palmatum Linn that inhibits DPP4” (PeerJ, 2017).
Values joined by “and” are separate entries in the source; they are usually repeats but may differ in a detail not shown here. Equal values may be shown once.

Tests used:
[1] = target: DPP8 (Homo sapiens, UniProt Q6V1X1); assay: DPP8 activity assay (BPS Bioscience kit); format: biochemical;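 for DPP8 assay, Emission (450 nm): fluorescence read with excitation at 365 nm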
Chain of DPP8 (Q6V1X1 whole entry): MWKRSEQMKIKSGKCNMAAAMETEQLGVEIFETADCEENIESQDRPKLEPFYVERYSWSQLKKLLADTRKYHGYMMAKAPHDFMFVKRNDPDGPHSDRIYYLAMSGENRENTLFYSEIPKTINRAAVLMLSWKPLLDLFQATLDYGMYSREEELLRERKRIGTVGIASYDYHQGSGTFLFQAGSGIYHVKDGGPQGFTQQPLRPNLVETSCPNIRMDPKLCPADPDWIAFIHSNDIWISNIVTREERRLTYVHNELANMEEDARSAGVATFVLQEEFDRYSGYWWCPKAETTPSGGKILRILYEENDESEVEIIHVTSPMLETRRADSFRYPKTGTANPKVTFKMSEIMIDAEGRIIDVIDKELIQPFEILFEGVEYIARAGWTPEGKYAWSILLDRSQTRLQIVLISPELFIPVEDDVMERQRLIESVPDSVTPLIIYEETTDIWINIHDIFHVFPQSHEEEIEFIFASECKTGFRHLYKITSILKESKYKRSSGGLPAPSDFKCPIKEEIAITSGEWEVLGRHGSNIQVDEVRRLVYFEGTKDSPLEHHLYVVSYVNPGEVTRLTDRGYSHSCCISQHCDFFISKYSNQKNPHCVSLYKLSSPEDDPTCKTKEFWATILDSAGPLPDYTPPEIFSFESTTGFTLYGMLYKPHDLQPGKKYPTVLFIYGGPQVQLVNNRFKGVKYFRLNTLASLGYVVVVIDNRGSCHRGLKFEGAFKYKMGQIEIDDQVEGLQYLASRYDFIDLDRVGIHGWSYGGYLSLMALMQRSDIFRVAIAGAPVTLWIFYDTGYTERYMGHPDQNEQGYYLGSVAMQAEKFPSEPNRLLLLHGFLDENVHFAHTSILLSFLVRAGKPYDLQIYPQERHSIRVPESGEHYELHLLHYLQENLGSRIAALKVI
Experimental: A DPP8 assay kit was purchased from BPS Bioscience (Cat# 800208), and the assay protocol was followed to test for inhibitory activity on DPP8. Briefly, DPP substrate 1 was diluted to make a 100 µM stock solution, and DPP8 protein was diluted in DPP assay buffer to 2 ng/µl (20 ng/reaction). For the tested compounds, 10 µl of diluted DPP8 protein, 5 µl of diluted DPP substrate 1, 84 µl of DPP assay buffer and 1 µl of inhibitor were addedinto the assay system for a total volume of 100 µl. The reaction mixtures were prepared in duplicate on a 96-well plate and incubated at room temperature for 10 min. […]

[2] = system: GLP-1; assay: Plasma GLP-1 activity after oral emodin; format: in vivo, mice; design: unit not given here; settings: 30 mg/kg P.O., C57BL/6 (head), individual animals
[3] = target: T1, plasma DPP4 activity (Mus musculus, UniProt P28843); assay: Plasma DPP4 activity after oral emodin (DPP4-Glo assay kit); format: in vivo, mice; settings: individual animals; for plasma DPP4 activity, raw signal: Balb/c mice; for DPP4 activity, raw signal: ob/ob mice
T1 construct: followed by plasma collection at different time points to measure DPP4 activity in the blood; from tissue; host or cells: mouse plasma (Balb/c and ob/ob mice)
T1 sequence (P28843 37-760 limits assumed): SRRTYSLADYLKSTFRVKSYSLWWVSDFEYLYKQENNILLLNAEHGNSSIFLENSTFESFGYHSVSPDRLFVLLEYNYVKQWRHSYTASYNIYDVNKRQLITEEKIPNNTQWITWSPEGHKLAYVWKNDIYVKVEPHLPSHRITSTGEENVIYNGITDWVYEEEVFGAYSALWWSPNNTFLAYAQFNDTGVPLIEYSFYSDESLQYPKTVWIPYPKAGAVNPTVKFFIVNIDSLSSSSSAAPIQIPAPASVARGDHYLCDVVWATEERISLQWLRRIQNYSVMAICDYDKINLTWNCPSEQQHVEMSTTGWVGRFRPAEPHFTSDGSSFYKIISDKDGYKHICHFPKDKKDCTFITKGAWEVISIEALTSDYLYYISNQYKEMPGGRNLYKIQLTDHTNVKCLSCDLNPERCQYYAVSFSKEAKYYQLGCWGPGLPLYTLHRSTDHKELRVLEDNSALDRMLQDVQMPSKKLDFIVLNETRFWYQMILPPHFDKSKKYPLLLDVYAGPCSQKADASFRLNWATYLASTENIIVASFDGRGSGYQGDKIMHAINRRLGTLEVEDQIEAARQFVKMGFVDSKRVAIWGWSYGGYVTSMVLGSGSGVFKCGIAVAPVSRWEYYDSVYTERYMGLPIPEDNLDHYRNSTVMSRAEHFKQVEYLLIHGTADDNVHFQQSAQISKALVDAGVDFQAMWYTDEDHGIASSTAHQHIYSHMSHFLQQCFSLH
Experimental: Balb/c mice (male, six weeks) and ob/ob (-/-) mice (male, six weeks) were purchased from the Shanghai SLAC Laboratory Animal Co. Ltd. (Shanghai, China) and maintained in an air-conditioned room at 20–25 °C under a 12 h dark/light cycle and fed certified standard chow and tap water ad libitum. Experiments were conducted in compliance with the Guide for the Care and Use of Laboratory Animals. Mice were orally administered with emodin (3, 10, or 30 mg /kg) and had their blood collected at 0.5, 1, 2, and 4 h after emodin treatment. The samples were subjected to plasma isolation immediately after collection. Plasma samples were tested for DPP4 activity with a DPP4-Glo assay kit (Promega, Beijing, China) according to the manufacturer’s protocol. The experimental protocol was approved by Animal Care and Use Committee of Xiamen University(XM2015030514).
To test the inhibitory activity of emodin on DPP4 in vivo, an animal experiment was conducted by oral administration of emodin (3, 10 and 30 mg/kg, P.O., n = 5) to Balb/c mice, followed by plasma collection at different time points to measure DPP4 activity in the blood. Plasma samples were collected at 0, 0.5, 1, 2 and 4 h after the oral dose of emodin, and plasma DPP4 activity was measured with a DPP4-Glo assay kit. […] The lowest does of emodin (3 mg/kg) decreased plasma DPP4 activity from baseline, although these levels rebounded after 1 h, whereas 10 and 30 mg/kg doses of emodin decreased plasma DPP4 activity and maintained the lower levels until 2 h post-treatment (Fig. 4). This dose-dependent manner is probably due to the pharmacokinetics of emodin, and 10 and 30 mg/kg have maximized the pharmacokinetic coverage, while 3 mg/kg emodin is only sufficient to maintain 1 h DPP4 inhibition in vivo. In the subsequent experiment, emodin (30 mg/kg, P.O.) was administered on Balb/C mice (n = 5) or ob/ob (-/-) mice (n = 5). The DPP4 activity, blood glucoselevels and GLP-1 activity were tested 0, 1, 2, 4, 8 h after administration. […] This downregulation maintained 2 h in Balb/C mice, and 4 h in ob/ob (-/-) mice, which rebounded afterwards (Fig. 5A). […] Plasma GLP-1 activity was also measured.

[4] = target: T1, plasma DPP4 activity; assay: as above; format: in vivo, mice; settings: for plasma DPP4 activity, raw signal / DPP4 activity, raw signal: individual animals; for DPP4 activity, raw signal: C57BL/6 (head)
[5] = 30 mg/kg P.O., 0 hours (baseline)

Structure (SMILES): Cc1cc(O)c2c(c1)C(=O)c1cc(O)cc(O)c1C2=O [Emodin]
- DPP8 assay, Emission (450 nm) ([1]; 100 µM, Exp #1-#5): 25326 and 25088 and 25860 and 47385 and 48311
- DPP8 activity ([1]; 100 µM, Exp #1-#5, DMSO = Ctrl): 91.7 % of Ctrl and 91.1 % of Ctrl and 90.2 % of Ctrl and 93.0 % of Ctrl and 89.9 % of Ctrl
- activity against DPP8 ([1]; tested at 100 µM): without inhibiting
- GLP-1 ([2]; 0 hours (baseline)): 2.4022 and 3.1852 and 3.2635 and 2.9242 and 1.0711
- GLP-1 ([2]; 1 hours): 2.5849 and 2.8981 and 2.4805 and 2.9503 and 0.9928
- GLP-1 ([2]; 2 hours): 2.6371 and 2.5849 and 2.9242 and 1.3843 and 2.0629
- GLP-1 ([2]; 4 hours): 2.6893 and 3.1069 and 3.0808 and 3.2113 and 0.4708
- GLP-1 ([2]; 8 hours): 1.9063 and 3.394 and 3.3157 and 2.0107 and 0.2881
- plasma DPP4 activity, raw signal ([3]; 3 mg/kg P.O., time 1 h): 213620 and 121520 and 101880
- plasma DPP4 activity, raw signal ([3]; 10 mg/kg P.O., time 0.5 h): 241067 and 195640 and 202693
- DPP4 activity, raw signal [3, 5]: 3401200 and 3668100 and 3319500 and 3595400 and 3453300
- DPP4 activity, raw signal ([3]; 30 mg/kg P.O., 1 hours): 3125000 and 3575300 and 2433200 and 3311900 and 2854200
- DPP4 activity, raw signal ([3]; 30 mg/kg P.O., 2 hours): 3363400 and 2959900 and 2928700 and 2749100
- DPP4 activity, raw signal ([3]; 30 mg/kg P.O., 4 hours): 3275000 and 2989300 and 2592200 and 2835500 and 2877800
- DPP4 activity, raw signal ([3]; 30 mg/kg P.O., 8 hours): 3489100 and 3461100 and 2912800 and 3032000 and 2847400
- plasma DPP4 activity, raw signal ([3]; 30 mg/kg P.O., time 2 h): 196547 and 112320 and 158453
- plasma DPP4 activity, raw signal ([3]; 30 mg/kg P.O., time 4 h): 339907 and 323187 and 357187
- time for which plasma DPP4 activity stayed decreased ([4]; 3 mg/kg P.O., Balb/c mice, rebounded afterwards): 1 h
- plasma DPP4 activity, raw signal ([4]; 3 mg/kg P.O., time 0 h (baseline), Balb/c mice): 200500 and 223040 and 210853
- plasma DPP4 activity, raw signal ([4]; 3 mg/kg P.O., time 0.5 h, Balb/c mice): 157120 and 186480 and 184560
- plasma DPP4 activity, raw signal ([4]; 3 mg/kg P.O., time 2 h, Balb/c mice): 291827 and 237493 and 317253
- plasma DPP4 activity, raw signal ([4]; 3 mg/kg P.O., time 4 h, Balb/c mice): 377573 and 331360 and 321880
- plasma DPP4 activity, raw signal ([4]; 10 mg/kg P.O., time 0 h (baseline), Balb/c mice): 349733 and 267840 and 314147
- plasma DPP4 activity, raw signal ([4]; 10 mg/kg P.O., time 1 h, Balb/c mice): 158860 and 133520 and 164280
- plasma DPP4 activity, raw signal ([4]; 10 mg/kg P.O., time 2 h, Balb/c mice): 158760 and 116813 and 222440
- plasma DPP4 activity, raw signal ([4]; 10 mg/kg P.O., time 4 h, Balb/c mice): 367160 and 355600 and 350787
- time for which downregulation of DPP4 activity was maintained ([4]; 30 mg/kg P.O., Balb/C mice, n = 5): 2 h
- DPP4 activity, raw signal [4, 5]: 2962300 and 3555100 and 2704100 and 2803100 and 3111100
- DPP4 activity, raw signal ([4]; 30 mg/kg P.O., 1 hours): 2755900 and 3040800 and 2268700 and 2388700 and 2836800
- DPP4 activity, raw signal ([4]; 30 mg/kg P.O., 2 hours): 3055900 and 3015200 and 2510000 and 2257000 and 2971200
- DPP4 activity, raw signal ([4]; 30 mg/kg P.O., 4 hours): 2708000 and 3031400 and 2814800 and 2664500 and 2844400
- DPP4 activity, raw signal ([4]; 30 mg/kg P.O., 8 hours): 3130600 and 3310000 and 2020300 and 3224400 and 3166700
- effect on DPP4 activity ([4]; 30 mg/kg P.O., both Balb/C mice and ob/ob (-/-) mice): significant downregulation
- time for which downregulation of DPP4 activity was maintained ([4]; 30 mg/kg P.O., ob/ob (-/-) mice, n = 5): 4 h
- plasma DPP4 activity, raw signal ([4]; 30 mg/kg P.O., time 0 h (baseline), Balb/c mice): 290800 and 216573 and 224480
- plasma DPP4 activity, raw signal ([4]; 30 mg/kg P.O., time 0.5 h, Balb/c mice): 175387 and 222147 and 170307
- plasma DPP4 activity, raw signal ([4]; 30 mg/kg P.O., time 1 h, Balb/c mice): 159040 and 152000 and 181707
- effect on plasma DPP4 activity ([4]; 3, 10 and 30 mg/kg, P.O., Balb/c mice, n = 5): decreased the plasma DPP4 activity in a dose-dependent manner
- time until which lower plasma DPP4 activity was maintained ([4]; 10 and 30 mg/kg P.O., Balb/c mice): 2 h
